Tests used:
Test in all cases: IC25 growth inhibition; higher = less potent
[1] = test system: Bacteroides thetaiotaomicron
Outline: (§1)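 Monocultures grown overnight in mGAM were added to pre-reduced plates holding twofold drug dilutions, giving a starting OD578 of 0.01 and 1% DMSO (or water). Growth was followed anaerobically by hourly OD578 readings in a plate reader, with at least three biological replicates. The median growth-curve AUC per concentration was forced to be monotonic. IC25 was the lowest concentration with median AUC below 0.75, reported as a tested interval.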

Coprococcus comes = test system: Coprococcus comes
Outline: as §1

Eubacterium rectale = test system: Eubacterium rectale
Outline: as §1

Escherichia coli ED1a = test system: Escherichia coli ED1a
Outline: as §1

Bacteroides vulgatus = test system: Bacteroides vulgatus
Outline: as §1

Ruminococcus gnavus = test system: Ruminococcus gnavus
Outline: as §1

Bacteroides uniformis = test system: Bacteroides uniformis
Outline: as §1

Streptococcus salivarius = test system: Streptococcus salivarius
Outline: as §1

Shigella flexneri = test system: Shigella flexneri
Outline: as §1

Vibrio cholerae = test system: Vibrio cholerae
Outline: as §1

[2] = test system: Fusobacterium nucleatum subsp. Nucleatum
Outline: as §1

Roseburia intestinalis = test system: Roseburia intestinalis
Outline: as §1

Parabacteroides merdae = test system: Parabacteroides merdae
Outline: as §1

Bacteroides fragilis NT = test system: Bacteroides fragilis NT
Outline: as §1

Dorea formicigenerans = test system: Dorea formicigenerans
Outline: as §1

[3] = test system: Salmonella enterica typhimurium
Outline: as §1

[4] = test system: Yersinia pseudotuberculosis
Outline: as §1

Collinsella aerofaciens = test system: Collinsella aerofaciens
Outline: as §1

[5] = test system: Yersinia enterocolitica WA-314
Outline: as §1

[6] = test system: Streptococcus parasanguinis
Outline: as §1

Clostridium ramosum = test system: Clostridium ramosum
Outline: as §1

Clostridium perfringens = test system: Clostridium perfringens
Outline: as §1

Clostridium bolteae = test system: Clostridium bolteae
Outline: as §1

[7] = test system: Clostridium saccharolyticum
Outline: as §1
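Note: lowest concentration where monotonic median growth AUC falls below 0.75 of drug-free control.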

Row | SMILES | IC25 growth inhibition [1] [µM] | IC25 growth inhibition (Coprococcus comes) [µM] | IC25 growth inhibition (Eubacterium rectale) [µM] | IC25 growth inhibition (Escherichia coli ED1a) [µM] | IC25 growth inhibition (Bacteroides vulgatus) [µM] | IC25 growth inhibition (Ruminococcus gnavus) [µM] | IC25 growth inhibition (Bacteroides uniformis) [µM] | IC25 growth inhibition (Streptococcus salivarius) [µM] | IC25 growth inhibition (Shigella flexneri) [µM] | IC25 growth inhibition (Vibrio cholerae) [µM] | IC25 growth inhibition [2] [µM] | IC25 growth inhibition (Roseburia intestinalis) [µM] | IC25 growth inhibition (Parabacteroides merdae) [µM] | IC25 growth inhibition (Bacteroides fragilis NT) [µM] | IC25 growth inhibition (Dorea formicigenerans) [µM] | IC25 growth inhibition [3] [µM] | IC25 growth inhibition [4] [µM] | IC25 growth inhibition (Collinsella aerofaciens) [µM] | IC25 growth inhibition [5] [µM] | IC25 growth inhibition [6] [µM] | IC25 growth inhibition (Clostridium ramosum) [µM] | IC25 growth inhibition (Clostridium perfringens) [µM] | IC25 growth inhibition (Clostridium bolteae) [µM] | IC25 growth inhibition [7] [µM]
1 | CCOC(=O)C1=C(COCCN)NC(C)=C(C(=O)OC)C1c1ccccc1Cl (configuration not stated) [Amlodipine] | ≤ 80 | > 80 | ≤ 80 | > 80 | ≤ 40 | ≤ 80 | ≤ 80 | ≤ 40 | > 80 | > 80 | ≤ 80 | ≤ 40 | ≤ 80 | ≤ 80 | ≤ 40 | > 80 | > 80 | ≤ 80 | > 80 | > 80 | – | – | – | –
2 | O=C1CCc2ccc(OCCCCN3CCN(c4cccc(Cl)c4Cl)CC3)cc2N1 [Aripiprazole] | > 160 | > 160 | > 160 | > 160 | > 160 | > 160 | > 160 | > 80 | > 160 | > 160 | > 160 | > 160 | > 160 | > 160 | > 160 | > 80 | > 40 | > 160 | > 160 | > 80 | > 160 | > 160 | > 160 | > 160
3 | CC[C@H](C)[C@H]1O[C@]2(C=C[C@@H]1C)C[C@@H]1C[C@@H](C/C=C(\C)[C@@H](O[C@H]3C[C@H](OC)[C@@H](O[C@H]4C[C@H](OC)[C@@H](O)[C@H](C)O4)[C@H](C)O3)[C@@H](C)/C=C/C=C3\CO[C@@H]4[C@H](O)C(C)=C[C@@H](C(=O)O1)[C@]34O)O2.CO[C@H]1C[C@H](O[C@H]2[C@H](C)O[C@@H](O[C@@H]3/C(C)=C/C[C@@H]4C[C@@H](C[C@]5(C=C[C@H](C)[C@@H](C(C)C)O5)O4)OC(=O)[C@@H]4C=C(C)[C@@H](O)[C@H]5OC/C(=C\C=C\[C@@H]3C)[C@]54O)C[C@@H]2OC)O[C@@H](C)[C@@H]1O [Avermectin B1] | ≤ 20 | ≤ 20 | ≤ 10 | > 160 | ≤ 10 | ≤ 10 | ≤ 20 | ≤ 10 | > 20 | > 20 | > 40 | ≤ 2.5 | ≤ 10 | ≤ 10 | ≤ 5 | > 80 | > 10 | ≤ 10 | > 10 | ≤ 20 | ≤ 40 | ≤ 10 | ≤ 40 | ≤ 80
4 | CC[C@H]1OC(=O)[C@H](C)[C@@H](O[C@H]2C[C@@](C)(OC)[C@@H](O)[C@H](C)O2)[C@H](C)[C@@H](O[C@@H]2O[C@H](C)C[C@H](N(C)C)[C@H]2O)[C@](C)(OC)C[C@@H](C)C(=O)[C@H](C)[C@@H](O)[C@]1(C)O [Clarithromycin] | < 1.25 | < 1.25 | < 1.25 | ≤ 40 | < 1.25 | < 1.25 | < 1.25 | < 1.25 | ≤ 10 | < 1.25 | ≤ 5 | < 1.25 | < 1.25 | < 1.25 | < 1.25 | ≤ 40 | > 160 | < 1.25 | ≤ 5 | < 1.25 | < 1.25 | < 1.25 | < 1.25 | < 1.25

Reference: the supplement of paper PMC12350171
